Twelve molecules from ChEMBL document CHEMBL1142263, “Structural analogs of tylophora alkaloids may not be functional analogs” (Bioorg Med Chem Lett, 2008) can be followed below.

Assay [1] is described as follows: Growth inhibition of human HepG cells. The format is functional.
The test system of another assay is PANC-1. Kind of assay: Growth inhibition of human PANC1 cells. Format: functional.
Assay [2] is described as follows: Inhibition of AP1-mediated transcription in human HepG cells. Format: cell-based.
A short description of assay [3]: Inhibition of GRE-mediated transcription in human HepG cells. Format: cell-based.
Assay [4] is described as follows: Inhibition of NF-kappaB-mediated transcription in human HepG cells. Format: cell-based.
A short description of assay [5]: Inhibition of CRE-mediated transcription in human HepG cells. The format is cell-based.
In another assay the test system is CCRF-CEM. Kind of assay: Growth inhibition of human CEM cells. The format is functional.
For assay [6], the system named is HepG. In words: Inhibition of protein synthesis in human HepG cells. Format: functional, cell-based.
Assay [7] deals with HepG. In words: Inhibition of DNA synthesis in human HepG cells. The format is functional, cell-based.
Assay [8] relates to HepG. In words: Inhibition of RNA synthesis in human HepG cells. The format is functional, cell-based.
Assay [9] can be described thus: Ratio of IC50 for AP1-mediated transcription in human HepG cells to GI50 for human HepG2 cells. The format is functional.
The nature of assay [10]: Ratio of IC50 for CRE-mediated transcription in human HepG cells to GI50 for human HepG2 cells. Format: functional.
Assay [11] can be described thus: Ratio of IC50 for NF-kappaB-mediated transcription in human HepG cells to GI50 for human HepG2 cells. The format is functional.
A short description of assay [12]: Ratio of IC50 for GRE-mediated transcription in human HepG cells to GI50 for human HepG2 cells. Format: functional.

Each structure is given as a SMILES string. Active and inactive are the calls of the source. No cut-off for these calls is given here.

In general, GI50 refers to the concentration that inhibits growth by half. One may read the IC50 as the concentration that gives 50% inhibition. A high value points to lower potency. `COc1cc2c3c(c4cc(OC)c(OC)cc4c2cc1OC)CN1CCC[C@H]1C3` [(S)-TYLOPHORINE]: the GI50 in [1] came to 11 nM; in the assay with PANC-1, 12 nM; in the assay with CCRF-CEM it was 15 nM. Also, the IC50 is more than 300 nM in assay [2], 229 nM in assay [3], 41 nM in assay [4] and more than 300 nM in [5].

On to `COc1ccc2c3c(c4cc(OC)c(OC)cc4c2c1)CC1CCCCN1C3` (racemic), for which the GI50 was found to be 1.5 nM in [1], 0.5 nM with PANC-1 and 2 nM in the assay on CCRF-CEM. For the same molecule, the IC50 in assay [2] amounted to 18.6 nM; in assay [3], 10 nM; in assay [4], 1.4 nM; in assay [5], 25 nM.

For `COc1ccc2c(CNCCCCCO)cc3cc4c(cc3c2c1)OCO4`, the GI50 turned out to be 2300 nM in [1], 2200 nM in the assay with PANC-1 and 2000 nM in the assay with CCRF-CEM. Moreover, the 50% inhibitory concentration (IC50) in assay [2] is 8700 nM; in assay [3] it was 9200 nM; in [4] it was 7900 nM; in [5], 8600 nM.

In the case of `COc1ccc2cc(C)c3cc(OC)c(OC)cc3c2c1`, the GI50 was more than 10000 nM in [1], more than 10000 nM in the assay with PANC-1 and more than 2000 nM in the assay on CCRF-CEM. For the same molecule, the IC50 was more than 15000 nM in assay [2], more than 15000 nM in assay [3], more than 10000 nM in assay [4] and more than 15000 nM in assay [5].

For the molecule `COc1ccc2c3c(c4cc5c(cc4c2c1)OCO5)C[C@H]1CCCN1C3`, the 50% growth inhibitory concentration (GI50) in [1] worked out at 371 nM; in the assay with PANC-1, 156 nM; in the assay with CCRF-CEM, 323 nM. Moreover, the IC50 was found to be 3380 nM in assay [2], 2440 nM in [3], 1240 nM in assay [4] and 2570 nM in assay [5]. For the same molecule, the result in the assay on HepG [6] was Active. Also, the Activity entry in the assay with HepG [7] was “Dose-dependent effect”.

Turning to `COc1ccc2c(CN3CCC[C@H]3CO)cc3cc4c(cc3c2c1)OCO4`, the GI50 in assay [1] is 5400 nM; in the assay with PANC-1 it was 6200 nM; in the assay with CCRF-CEM, 2700 nM. The IC50 in [2] was more than 30000 nM; in assay [3], 19000 nM; in [4], 21000 nM; in [5], 24000 nM. Moreover, the result with HepG [8] was Active. Besides, in the assay with HepG [6], the outcome was inactive. Besides, the Activity entry with HepG [7] was “Dose-dependent effect”.

Turning to `COc1ccc2c(CN3CCCC[C@H]3CO)cc3cc4c(cc3c2c1)OCO4`, the GI50 in [1] is 3100 nM; in the assay with PANC-1, 2300 nM; in the assay on CCRF-CEM, 1600 nM. Also, the IC50 in [2] was found to be 10000 nM; in assay [3], 20700 nM; in assay [4], 10200 nM; in assay [5], 18500 nM.

Regarding `COc1cc2c3c(c4cc(OC)c(OC)cc4c2cc1OC)CN1CCC[C@@H]1C3` [TYLOPHORINE], the GI50 worked out at 33 nM in assay [1], 29 nM in the assay with PANC-1 and 67 nM in the assay on CCRF-CEM. Also, the IC50 turned out to be 2260 nM in assay [2], 534 nM in assay [3], 317 nM in assay [4] and 7910 nM in assay [5].

Regarding `COc1ccc2c(CN3CCC[C@H]3C(=O)O)cc3cc4c(cc3c2c1)OCO4`, the GI50 stood at 8600 nM in assay [1], 7400 nM with PANC-1 and 6200 nM in the assay with CCRF-CEM. Besides, the IC50 in [2] was 27000 nM; in assay [3], more than 30000 nM; in assay [4] it was 23500 nM; in assay [5], 25000 nM.

In the case of `COc1ccc2cc(C[C@H]3CCCCN3)c3cc(OC)c(OC)cc3c2c1`, the Activity is 5.7 in assay [9]; 7 in [10]; 1.3 in [11]; “Dose-dependent effect” in the assay with HepG [8]; “Dose-dependent effect” in the assay on HepG [6]; “Dose-dependent effect” in the assay with HepG [7]. In addition, the Activity in [12] was found to be 2.6. Moreover, the values for the concentration for 50% growth inhibition (GI50) (in assay [1]; with PANC-1; in the assay with CCRF-CEM) were 1720 nM, 904 nM and 567 nM, respectively. In addition, the IC50 in assay [2] was 9780 nM; in assay [3], 4500 nM; in assay [4], 2170 nM; in assay [5], 12000 nM.

As for `COc1ccc2c3c(c4cc(OC)c(OC)cc4c2c1)C[C@H]1CCCN1C3` [(-)-ANTOFINE], the Activity in assay [9] was 28; in assay [10], 34; in the assay with HepG [7] it was “Dose-dependent effect”; in assay [12] it was 4.9. Further, the values for the GI50 (in assay [1]; with PANC-1; in the assay with CCRF-CEM) were 4.9 nM, 2.2 nM and 5.2 nM, respectively. Moreover, the IC50 amounted to 135 nM in assay [2], 24 nM in [3], 7.3 nM in assay [4] and 167 nM in assay [5]. The Ratio in [11] came to 1.5. Besides, the result in the assay with HepG [8] was inactive. For the same molecule, the result in the assay with HepG [6] was Active.

Consider `COc1ccc2c(CN3CCCC[C@H]3C(=O)O)cc3cc4c(cc3c2c1)OCO4`, for which the results for the GI50 (in [1]; with PANC-1; with CCRF-CEM) were 3000 nM, 2300 nM and 1700 nM, respectively. Besides, the IC50 in [2] was 6200 nM; in assay [3], 7200 nM; in [4], 7000 nM; in assay [5] it was 12100 nM.
